Molecules are shown by their SMILES. ≈ marks a conversion by molar mass, not a printed value. Where “and” joins values, the source holds several entries; their conditions need not be identical. Equal values may be shown once.

Test in all cases: ≥ marks a high value that may be exact or a test limit, other limits are often not marked, values filed in µg/mL are converted to µM
Experiment [1] relates to Bacillus subtilis ATCC 6051.
Experiment [2] deals with Bacillus megaterium Bm11.
Experiment [3] relates to Escherichia coli D21.
The test system of experiment [4] is Pseudomonas aeruginosa ATCC 27853.
Experiment [5] deals with Acinetobacter calcoaceticus Ac11.
In experiment [6] the test system is Salmonella enterica subsp. enterica serovar Typhimurium LT2.
The test system of experiment [7] is Micrococcus luteus ATCC 9341.
Experiment [8] concerns Staphylococcus xylosus.
The test system of experiment [9] is Streptococcus alactolyticus.
Experiment [10] concerns Salmonella enterica.
In experiment [11] the test system is Vibrio parahaemolyticus CCRC 10806.
Experiment [12] relates to Salmonella typhimurium CCRC 12947.
Experiment [13] has as its system Escherichia coli JM109.
Experiment [14] relates to Staphylococcus aureus CCRC 12652.
Experiment [15] deals with Pseudomonas aeruginosa.
Experiment [16] deals with Citrobacter koseri.
Experiment [17] has as its system Staphylococcus aureus CCRC 15211.
Experiment [18] deals with Klebsiella pneumoniae CCRC 10694.
Experiment [19] concerns Escherichia coli BL21.
For experiment [20], the system named is Acinetobacter baumannii AYE.
Experiment [21] has as its system Staphylococcus aureus NCTC 13616.
In experiment [22] the test system is Klebsiella pneumoniae NCTC 13368.
Experiment [23] relates to Enterococcus faecalis NCTC 775.
The subject of experiment [24] is Staphylococcus aureus NCTC 13277.
The subject of experiment [25] is Pseudomonas aeruginosa NCTC 13437.
Experiment [26] deals with Candida albicans NCPF 3179.
Experiment [27] concerns Enterococcus faecalis NCTC 12201.
The test system of experiment [28] is Klebsiella pneumoniae M6.
Experiment [29] relates to Pseudomonas aeruginosa PAO1.
Experiment [30] concerns Acinetobacter baumannii ATCC 17978.
For experiment [31], the system named is Staphylococcus aureus NCTC 6571.
Experiment [32] concerns Staphylococcus aureus A170.
The subject of experiment [33] is Staphylococcus epidermidis.
The subject of experiment [34] is Candida tropicalis.
The subject of experiment [35] is Serratia marcescens.
For experiment [36], the system named is Klebsiella pneumoniae ATCC 700603.
Experiment [37] has as its system Lactiplantibacillus plantarum ATCC 8014.
Experiment [38] concerns Enterobacter sp.
Experiment [39] relates to Lactococcus lactis ATCC 11454.
Experiment [40] has as its system Bacillus subtilis ATCC 6633.
Experiment [41] concerns Staphylococcus aureus.
Experiment [42] relates to Bacillus anthracis.
For experiment [43], the system named is Bacillus subtilis.
The test system of experiment [44] is Escherichia coli ATCC 25922.
Experiment [45] concerns Staphylococcus aureus ATCC 25923.
Experiment [46] concerns Bacillus cereus ATCC 14579.
Experiment [47] concerns Bacillus licheniformis.
Experiment [48] concerns Escherichia coli.
Experiment [49] has as its system Priestia flexa.
The test system of experiment [50] is Salmonella enterica subsp. enterica serovar Enteritidis ATCC 13076.

What is called MIC is the lowest concentration found to suppress growth. In the case of `CC[C@H](C)[C@H](NC(=O)[C@H](CCCCN)NC(=O)[C@@H]1CCCN1C(=O)[C@@H](NC(=O)[C@H](CC(C)C)NC(=O)[C@H](C)NC(=O)[C@H](Cc1ccccc1)NC(=O)[C@H](Cc1ccccc1)NC(=O)CN)[C@@H](C)CC)C(=O)N[C@H](C(=O)N[C@@H](CO)C(=O)O)[C@@H](C)CC` [GFFALIPKIIS], the MIC in [1] was not below 100 µM; in experiment [2], not below 100 µM; in experiment [3], not below 100 µM; in experiment [4] it was more than 100 µM; in [5], not below 100 µM; in experiment [6] it was not below 100 µM. Also, in experiment [7], the MIC is not below 100 µM.

`CC[C@H](C)[C@H](N)C(=O)N[C@@H](CC(N)=O)C(=O)N[C@@H](CC(C)C)C(=O)N[C@@H](CCCCN)C(=O)N[C@@H](C)C(=O)N[C@H](C(=O)N[C@@H](C)C(=O)N[C@@H](C)C(=O)N[C@@H](Cc1ccccc1)C(=O)N[C@@H](C)C(=O)N[C@@H](CCCCN)C(=O)N[C@@H](CCCCN)C(=O)N[C@@H](CC(C)C)C(=O)N[C@@H](CC(C)C)C(N)=O)[C@@H](C)CC` [INLKAIAAFAKKLL]: the MIC in experiment [8] worked out at 1.32 µM (≈ 2 µg/mL); in experiment [9] it was 10.6 µM (≈ 16 µg/mL); in [10], 10.6 µM (≈ 16 µg/mL); in experiment [11], 21.1 µM (≈ 32 µg/mL); in [12], 21.1 µM (≈ 32 µg/mL); in experiment [13], 5.28 µM (≈ 7.99 µg/mL). In addition, the MIC in experiment [14] is 15.9 µM (≈ 24 µg/mL); in [15], 84.5 µM (≈ 128 µg/mL); in experiment [16], 2.64 µM (≈ 4 µg/mL); in [17], 21.1 µM (≈ 32 µg/mL); in experiment [18], 21.1 µM (≈ 32 µg/mL); in experiment [19], 5.28 µM (≈ 7.99 µg/mL).

In the case of `CC[C@H](C)[C@H](NC(=O)[C@@H]1CCCN1C(=O)[C@H](CC(C)C)NC(=O)[C@H](CC(C)C)NC(=O)[C@H](CCCCN)NC(=O)[C@@H](N)CCCCN)C(=O)N[C@H](C(=O)N[C@@H](C)C(=O)N[C@@H](CC(N)=O)C(=O)N[C@@H](CC(C)C)C(=O)N[C@@H](CC(C)C)C(=O)N[C@@H](CCCCN)C(=O)N[C@@H](CO)C(=O)N[C@@H](CC(C)C)C(=O)N[C@@H](CC(C)C)C(N)=O)C(C)C` [KKLLPIVANLLKSLL], the minimal inhibitory concentration (MIC) in experiment [20] is 19.2 µM and ≥ 38.5 µM; in experiment [21], not below 77 µM; in experiment [22] it was not below 77 µM; in [23] it was not below 77 µM; in experiment [24], not below 77 µM; in experiment [25], not below 77 µM. Further, the MIC in experiment [26] was not below 77 µM; in experiment [27], not below 77 µM; in experiment [28], not below 77 µM; in experiment [29] it was more than 77 µM; in experiment [30] it was 19.2 µM and ≥ 38.5 µM; in experiment [31], not below 77 µM.

With `CC[C@H](C)[C@H](NC(=O)[C@@H]1CCCN1C(=O)[C@H](CC(C)C)NC(=O)[C@@H](N)CC(C)C)C(=O)N[C@H](C(=O)N[C@@H](C)C(=O)N[C@@H](CC(N)=O)C(=O)N[C@@H](CC(C)C)C(=O)N[C@@H](CC(C)C)C(=O)N[C@@H](CCCCN)C(=O)N[C@@H](CO)C(=O)N[C@@H](CC(C)C)C(=O)N[C@@H](CC(C)C)C(=O)O)C(C)C` [LLPIVANLLKSLL], the MIC amounted to 3.55 µM (≈ 5 µg/mL) in [32] and 7.11 µM (≈ 10 µg/mL) in [33].

Consider `CSCC[C@H](NC(=O)[C@@H](N)CC(C)C)C(=O)N[C@H]1CSSC[C@@H](C(=O)N[C@@H](CO)C(=O)N[C@@H](CC(N)=O)C(=O)O)NC(=O)[C@H](CC(=O)O)NC(=O)[C@H](CC(C)C)NC(=O)[C@@H]2CCCN2C(=O)[C@H](Cc2cnc[nH]2)NC(=O)[C@H]([C@@H](C)O)NC1=O` [LMCTHPLDCSN], for which the MIC in [34] came to 25.9 µM (≈ 31.9 µg/mL).

For `CC(C)C[C@H](NC(=O)[C@@H](NC(=O)[C@H](CO)NC(=O)[C@H](CC(C)C)NC(=O)[C@@H]1CCCN1C(=O)[C@H](CC(C)C)NC(=O)[C@H](CO)NC(=O)[C@H](CCCCN)NC(=O)[C@H](CO)NC(=O)[C@@H](N)Cc1ccc(O)cc1)C(C)C)C(=O)N[C@@H](CC(N)=O)C(=O)N1CCC[C@H]1C(=O)O` [YSKSLPLSVLNP], the MIC is 24.3 µM (≈ 32 µg/mL) in experiment [35]; 12.1 µM (≈ 16 µg/mL) in experiment [36]; 24.3 µM (≈ 32 µg/mL) in experiment [37]; 12.1 µM (≈ 16 µg/mL) in experiment [38]; not below 97.2 µM in experiment [39]; 12.1 µM (≈ 16 µg/mL) in [40]. Further, the minimal inhibitory concentration (MIC) in experiment [41] was 48.6 µM (≈ 64 µg/mL); in experiment [42] it was not below 97.2 µM; in [43] it was 24.3 µM (≈ 32 µg/mL); in experiment [44], 6.07 µM (≈ 8 µg/mL); in experiment [45], 24.3 µM (≈ 32 µg/mL); in [46], not below 48.6 µM. For the same compound, the MIC in experiment [47] is not below 97.2 µM; in experiment [48], 6.07 µM (≈ 8 µg/mL); in experiment [49], 24.3 µM (≈ 32 µg/mL); in experiment [50], 3.04 µM (≈ 4 µg/mL).

The values are drawn from DBAASP.
